pIC50, pKi: −log10 of the molar value. Where a name gives a salt, the structure may show the parent alone.
Columns and labels:
human VR1 [1] = target: T1, human VR1 (Homo sapiens, UniProt Q8NER1); experiment: Human VR1 functional assay (FLIPR intracellular Ca2+); type: cell-based; conditions: for pIC50: antagonism of capsaicin-induced Ca2+ increase, read-out: h IC50; for inhibition at 1 µM: read-out: h % I (1 μM); for inhibition at 5 µM: read-out: h % I (5 μM); for Emax at 12 µM: read-out: % Response Relative to EC80 of Capsaicin (12 μM); for Emax at 6 µM: read-out: % Response Relative to EC80 of Capsaicin (6 μM)
T1 construct: expressed in transfected cells; host or cells: HEK293
T1 sequence (Q8NER1 whole entry): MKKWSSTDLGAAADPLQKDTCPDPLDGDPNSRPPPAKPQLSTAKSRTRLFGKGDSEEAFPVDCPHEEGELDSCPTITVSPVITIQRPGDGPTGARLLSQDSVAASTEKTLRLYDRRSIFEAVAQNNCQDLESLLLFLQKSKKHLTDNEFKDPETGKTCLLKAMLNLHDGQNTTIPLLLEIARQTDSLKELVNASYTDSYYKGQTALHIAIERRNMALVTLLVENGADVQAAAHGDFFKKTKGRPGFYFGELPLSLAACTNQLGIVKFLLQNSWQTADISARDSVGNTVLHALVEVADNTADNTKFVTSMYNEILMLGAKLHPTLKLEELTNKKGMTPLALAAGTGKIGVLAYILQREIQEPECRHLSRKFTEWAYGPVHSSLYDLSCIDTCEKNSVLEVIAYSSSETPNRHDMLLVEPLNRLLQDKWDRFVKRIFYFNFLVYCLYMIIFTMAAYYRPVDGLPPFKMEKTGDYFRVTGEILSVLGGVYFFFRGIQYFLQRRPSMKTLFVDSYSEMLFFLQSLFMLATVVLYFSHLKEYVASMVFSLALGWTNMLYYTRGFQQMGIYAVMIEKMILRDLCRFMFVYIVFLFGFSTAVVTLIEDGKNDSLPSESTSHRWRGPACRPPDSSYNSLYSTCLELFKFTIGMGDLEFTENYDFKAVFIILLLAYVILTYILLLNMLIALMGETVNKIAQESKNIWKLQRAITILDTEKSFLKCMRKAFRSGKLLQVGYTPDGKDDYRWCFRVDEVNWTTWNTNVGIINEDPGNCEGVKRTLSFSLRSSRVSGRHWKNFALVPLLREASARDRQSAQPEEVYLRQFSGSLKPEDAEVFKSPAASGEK
Outline: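 Read-out was Ca2+-dye fluorescence by FLIPR: compounds at varying concentrations were added to dye-loaded human VR1 HEK293 cells and monitored 5 min before capsaicin addition ([…], approx. EC80). Dose-response data, averaged over four wells, gave EC50 or IC50.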

human VR1 [2] = target: T1, human VR1; experiment: Human VR1 [3H]RTX binding assay; conditions: for pKi: [3H]RTX binding, HEK293 membranes; for inhibition at 1 µM / h Binding % I (1 μM): inhibition of [3H]RTX binding at 1 μM; for inhibition at 1 µM: read-out: h Binding % I (1 μM)
Method: Compounds of the present invention were tested for their ability to inhibit the binding of tritiated resiniferatoxin ([^3H] RTX) to human VR1 receptors in a [^3H] RTX binding assay, as previously described (Zhang, Sui-Po. Improved ligand binding assays for vanilloid receptors. PCT Int. Appl. (2002), WO 0233411 A1 20020425 AN 2002:315209; Grant, Elfrida R., Dubin, Adrienne E., Zhang, Sui-Po, Zivin, Robert A., Zhong, Zhong Simultaneous intracellular calcium and sodium flux imaging in human VR1-transfected human embryonic kidney cells: a method to resolve ionic dependence of VR1-mediated cell death. J. Pharmacol. Exp. ther., 2002, 300(1), 9-17.) HEK293 cells were transfected with human VR1 and washed with Hank's balanced Salt Solution, dissociated with cell dissociation buffer (Sigma), and then centrifuged at 1000× g for 5 min. Cell pellets were homogenized in cold 20 mM HEPES buffer (pH 7.4), containing 5.8 mM NaCl, 320 mM sucrose, 2 mM MgCl2, 0.75 CaCl2 and 5 mM KCl and centrifuged at 1000× g for 15 min. The resultant supernate was then centrifuged at 40000× g for 15 min. The pelleted membranes were stored in a freezer at −80 C.
Approximately 120 μg protein/ml from membranes were incubated with indicated concentrations of [^3H]RTX in 0.5 ml of the HEPES buffer (pH 7.4) containing 0.25 mg/mL fatty acid-free bovine serum albumin at 37 C for 60 min. After cooling the reaction mixture to 4 C, 0.1 mg (x-acid glycoprotein was added to each sample, which was incubated at 4 C for 15 min and then centrifuged at 18500× g for 15 min. The tip of the microcentrifuge tube containing the pellet was cut off. Bound radioactivity was quantified by scintillation counting. Non-specific binding was assessed in the presence of 200 nM unlabeled resiniferatoxin.
Data were calculated according to the equation: % inhibtion=(total binding−binding)*100/(total binding−non specific binding).
Ki values were calculated based on an average of duplicate measurements using a GraphPad Prism program.

[3] = inhibition of capsaicin response
[4] = inhibition of capsaicin response, 5 μM

| Compound | pIC50 (human VR1 [1]) | inhibition at 1 µM (human VR1 [1]; [3]) [%] | pKi (human VR1 [2]) | also measured |
| --- | --- | --- | --- | --- |
| O=C(CCc1ccc(C(F)(F)F)cc1)Nc1ccc(-c2cccc(O)c2)nc1 [Cpd 147] |  |  | 6.50 | Emax at 12 µM (human VR1 [1]; agonist response): 92%; inhibition at 1 µM (human VR1 [2]): 62% |
| Cc1nc(-c2ccc(NC(=O)CCc3ccc(C(C)(C)C)cc3)cc2)cs1 [Cpd 195] |  |  |  | h % I (5 μM) (human VR1 [1]; [4]): 20%; h Binding % I (1 μM) (human VR1 [2]): 75% |
| CC(C)(C)c1ccc(CCC(=O)Nc2ccc(-c3ccncc3)c(CO)c2)cc1 [Cpd 171] |  | 60 | 6.53 | Emax at 6 µM (human VR1 [1]; agonist response, 6 μM): 119% |
| CC(C)(C)c1ccc(CCC(=O)Nc2cccc(-c3ccccn3)c2)cc1 [Cpd 109, 3-(4-tert-butyl-phenyl)-N-(3-pyridin-2-yl-phenyl)-propionamide hydrochloride] |  |  |  | Emax at 12 µM (human VR1 [1]; agonist response): 47%; inhibition at 1 µM (human VR1 [2]): 1% |
| CC(C)(C)c1ccc(CCC(=O)Nc2ccc(-c3cccc(O)c3)c(C(=O)O)c2)cc1 [Cpd 74] |  |  |  | h % I (10 μM) (human VR1 [1]; [3]): 8%; h Binding % I (1 μM) (human VR1 [2]): 1% |
| CC(C)(C)c1ccc(CCC(=O)Nc2cccc(-c3cccc(O)c3)c2)cc1 [Cpd 5] |  |  |  | h % I (10 μM) (human VR1 [1]; [3]): 35%; h Binding % I (1 μM) (human VR1 [2]): 4% |
| O=C(CCc1ccc(C(F)(F)F)cc1)Nc1ccc(-c2cccnc2)nc1 [Cpd 151] |  |  |  | % Response Relative to EC80 of Capsaicin (12 μM) (human VR1 [1]; agonist response): 91%; h Binding % I (1 μM) (human VR1 [2]): 35% |
| CC(C)(C)c1ccc(CCC(=O)Nc2cc(F)c(-c3ccccn3)c(F)c2)cc1 [Cpd 175] |  | 75 | 6.85 |  |
| CC(C)(C)c1ccc(CCC(=O)Nc2ccc(-c3cccnc3)nc2)cc1 [Cpd 136] |  |  | 6.99 | Emax at 12 µM (human VR1 [1]; agonist response): 78%; inhibition at 1 µM (human VR1 [2]): 84% |
| Cc1cc(-c2cccc(O)c2)ccc1NC(=O)CCc1ccc(C(C)(C)C)cc1 [Cpd 58] |  |  |  | % Response Relative to EC80 of Capsaicin (6 μM) (human VR1 [1]; agonist response, 6 μM): 19%; h Binding % I (1 μM) (human VR1 [2]): 43% |
| O=C(CCc1ccc(C(F)(F)F)cc1)Nc1ccc(-c2ccncc2)nc1 [Cpd 152] |  |  |  | % Response Relative to EC80 of Capsaicin (12 μM) (human VR1 [1]; agonist response): 100%; h Binding % I (1 μM) (human VR1 [2]): 37% |
| CC(C)(C)c1ccc(CCC(=O)Nc2ccc(-c3ccc(O)cc3)c(F)c2)cc1 [Cpd 101] |  | 95 | 7.30 | Emax at 6 µM (human VR1 [1]; agonist response, 6 μM): 71% |
| CC(C)(C)c1ccc(CCC(=O)Nc2ccc(-c3cccnc3)cc2)cc1 [Cpd 107] |  |  | 6.92 | Emax at 12 µM (human VR1 [1]; agonist response): 78%; inhibition at 1 µM (human VR1 [2]): 82% |

Continued, in another order:

| pIC50 (human VR1 [1]) | inhibition at 1 µM (human VR1 [1]; [3]) [%] | pKi (human VR1 [2]) | Compound | also measured |
| --- | --- | --- | --- | --- |
| 6.79 | 83 | 6.12 | Cc1cn(-c2ncc(NC(=O)CCc3ccc(C(F)(F)F)cc3)cc2C)cn1 [Cpd 226] |  |
| 6.77 | 92 | 7.38 | O=C(/C=C/c1ccc(SC(F)(F)F)cc1)Nc1ccc(-n2cnc(Cl)c2Cl)c(C(F)(F)F)c1 [Cpd 228] |  |
| 6.14 |  | 6.70 | O=C(CCc1ccc(C(F)(F)F)cc1)Nc1ccc(-c2ccc(CO)cc2)c(C(F)(F)F)c1 [Cpd 250] | inhibition at 5 µM (human VR1 [1]; [4]): 100% |
| 7.40 |  | 7.19 | O=C(CCc1ccc(C(F)(F)F)cc1)Nc1ccc(-c2cccc(O)c2)c(C(F)(F)F)c1 [Cpd 206] | inhibition at 5 µM (human VR1 [1]; [4]): 100% |
| 6.31 | 70 | 6.01 | O=C(CCc1ccc(C(F)(F)F)cc1)Nc1ccc(C2=NOS(=O)N2)c(C(F)(F)F)c1 (centres unmarked) [Cpd 245, N-[4-(2-Oxo-2,3-dihydro-2λ^4-[1,2,3,5]oxathiadiazol-4-yl)-3-trifluoromethyl-phenyl]-3-(4-trifluoromethyl-phenyl)-propionamide] | inhibition at 5 µM (human VR1 [1]; [4]): 9% |
| 6.27 |  | 6.43 | Cc1cc(NC(=O)CCc2ccc(C(C)(C)C)cc2)cnc1-c1cccc(C#N)c1 [Cpd 246] | inhibition at 5 µM (human VR1 [1]; [4]): 105% |
| 7.06 | 101 | 7.32 | O=C(/C=C/c1ccc(S(=O)(=O)C(F)(F)F)cc1)Nc1ccc(-n2cnc(Cl)c2Cl)c(C(F)(F)F)c1 [Cpd 217] |  |
| 6.54 | 88 | 7.07 | Cc1cc(NC(=O)CCc2ccc(Cl)cc2)cnc1-n1cnc(Cl)c1Cl [Cpd 234] |  |

Source: US20060223837A1 (priority 2005, published 2006)
